Laboratory results from US12350270B2, “Antimalarial agents” (Merck Sharp & Dohme LLC, priority 2019, dated 2025).

Test system: parasites (ring stage, in human red blood cell culture)
Assay: Parasite LDH growth assay (antiparasite potency, Parasite Assay)
Format: cell-based, Plasmodium falciparum
Conditions: 0.7% rings, 2% haematocrit, 72 hours at 37° C., LDH readout of parasite growth
Procedure, shortened: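 Ring-stage parasites at 0.7% parasitemia and 2% haematocrit, in RPMI-Hepes/bicarbonate with 5% heat-inactivated human serum and 0.5% albumax, were added to compound-containing medium. Cultures grew 72 h at 37 °C in gassed humidified boxes. Plates were then frozen overnight at −80 °C, thawed 4 h, and growth was measured by LDH assay.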

Row | Compound | EC50 [nM]
1 | CCC1(CC)CC(=O)N(C2c3cc(C(=O)N[C@@H]4c5ccccc5C[C@H]4O)ccc3OC2(C)C)C(=N)N1 (stereo partly drawn) [Example 127B, 3-(4,4-diethyl-2-imino-6-oxo-hexahydropyrimidin-1-yl)-N-[(1R,2R)-2-hydroxyindan-1-yl]-2,2-dimethyl-3H-benzofuran-5-carboxamide] | 222

Same assay, conditions: Plasmodium falciparum, Erythrocyte, 72 h, 0.7% rings, 2% haematocrit, 72 hours at 37° C., LDH readout of parasite growth

Row | Compound | EC50 [nM]
2 | CC1(C)CC(=O)N(C2c3cc(C(=O)N[C@@H]4c5ccccc5C[C@]4(C)O)ccc3OC2(C)C)C(=N)N1 (stereo partly drawn) [Example 108, N-[(1R,2S)-2-hydroxy-2-methyl-indan-1-yl]-3-(2-imino-4,4-dimethyl-6-oxo-hexahydropyrimidin-1-yl)-2,2-dimethyl-3H-benzofuran-5-carboxamide] | 74.3
3 | CO[C@@H]1COc2ccccc2[C@H]1NC(=O)c1ccc2c(c1)[C@H](N1C(=N)NC(C)(C)CC1=O)CCO2 [Example 109, (4R)-4-(2-imino-4,4-dimethyl-6-oxo-hexahydropyrimidin-1-yl)-N-[(3S,4R)-3-methoxychroman-4-yl]chromane-6-carboxamide] | 14
4 | COC1COc2ccc(C(=O)N[C@@H]3c4ccccc4C[C@H]3O)cc2C1N1C(=N)NC(C)(C)CC1=O (stereo partly drawn) [Example 110, N-[(1R,2R)-2-hydroxyindan-1-yl]-4-(2-imino-4,4-dimethyl-6-oxo-hexahydropyrimidin-1-yl)-3-methoxy-chromane-6-carboxamide] | 60
5 | CCC1(CC)CC(=O)N([C@@H]2CCOc3ccc(C(=O)N[C@@H](C)c4ccccc4OC)cc32)C(=N)N1 [Example 111, (4R)-4-(4,4-diethyl-2-imino-6-oxo-hexahydropyrimidin-1-yl)-N-[(1S)-1-(2-methoxyphenyl)ethyl]chromane-6-carboxamide] | 90
6 | CC1(C)CC(=O)N([C@@H]2CCOc3ccc(C(=O)N[C@@H]4c5cc(F)ccc5OC[C@H]4O)cc32)C(=N)N1 [Example 112, (4R)-N-[(3S,4R)-6-fluoro-3-hydroxy-chroman-4-yl]-4-(2-imino-4,4-dimethyl-6-oxo-hexahydropyrimidin-1-yl)chromane-6-carboxamide] | 11.4
7 | CC1(C)CC(=O)N([C@@H]2CC(C)(C)c3ccc(C(=O)N[C@H]4CC(C)(C)Oc5ccccc54)cc32)C(=N)N1 [Example 113, (3R)-N-[(4S)-2,2-dimethylchroman-4-yl]-3-(2-imino-4,4-dimethyl-6-oxo-hexahydropyrimidin-1-yl)-1,1-dimethyl-indane-5-carboxamide] | 16.4
8 | CCC1(CC)CC(=O)N([C@@H]2CCCc3ccc(C(=O)N[C@@H]4c5ccccc5C[C@@]4(C)O)cc32)C(=N)N1 [Example 114, (4R)-4-(4,4-diethyl-2-imino-6-oxo-hexahydropyrimidin-1-yl)-N-[(1R,2R)-2-hydroxy-2-methyl-indan-1-yl]tetralin-6-carboxamide] | 1.8
9 | CCC1(CC)CC(=O)N([C@@H]2C[C@@H](OC)c3ccc(C(=O)N[C@@H]4c5ccccc5C[C@H]4O)cc32)C(=N)N1 [Example 115, (1R,3R)-3-(4,4-diethyl-2-imino-6-oxo-hexahydropyrimidin-1-yl)-N-[(1R,2R)-2-hydroxyindan-1-yl]-1-methoxy-indane-5-carboxamide] | 3.6
10 | CCC1(CC)CC(=O)N([C@H]2C[C@@H](OC)c3ccc(C(=O)N[C@@H]4c5ccccc5C[C@H]4O)cc32)C(=N)N1 [Example 116, (1R,3S)-3-(4,4-diethyl-2-imino-6-oxo-hexahydropyrimidin-1-yl)-N-[(1R,2R)-2-hydroxyindan-1-yl]-1-methoxy-indane-5-carboxamide] | 210
11 | CCC1(CC)CC(=O)N([C@@H]2C[C@H](OC)c3ccc(C(=O)N[C@@H]4c5ccccc5C[C@H]4O)cc32)C(=N)N1 [Example 117, (1S,3R)-3-(4,4-diethyl-2-imino-6-oxo-hexahydropyrimidin-1-yl)-N-[(1R,2R)-2-hydroxyindan-1-yl]-1-methoxy-indane-5-carboxamide] | 2.5
12 | CCC1(CC)CC(=O)N([C@H]2c3cc(C(=O)N[C@@H]4c5ccccc5C[C@H]4O)ccc3OC[C@H]2C)C(=N)N1 [Example 118, (3S,4R)-4-(4,4-diethyl-2-imino-6-oxo-hexahydropyrimidin-1-yl)-N-[(1R,2R)-2-hydroxyindan-1-yl]-3-methyl-chromane-6-carboxamide] | 0.9
13 | CCC1(CC)CC(=O)N([C@@H]2CCOc3ccc(C(=O)NC4CCCOc5ccccc54)cc32)C(=N)N1 (stereo partly drawn) [Example 119, (4R)-4-(4,4-diethyl-2-imino-6-oxo-hexahydropyrimidin-1-yl)-N-(2,3,4,5-tetrahydro-1-benzoxepin-5-yl)chromane-6-carboxamide] | 2.8
14 | CCC1(CC)CC(=O)N([C@H]2c3cc(C(=O)N[C@@H]4c5ccccc5C[C@H]4O)ccc3OC[C@@H]2C)C(=N)N1 [Example 120, (3R,4R)-4-(4,4-diethyl-2-imino-6-oxo-hexahydropyrimidin-1-yl)-N-[(1R,2R)-2-hydroxyindan-1-yl]-3-methyl-chromane-6-carboxamide] | 0.8
15 | CC[C@]1(C)CC(=O)N([C@@H]2CCc3ccc(C(=O)N[C@@H]4c5ccccc5OC(C)(C)[C@H]4O)cc32)C(=N)N1 [Example 121, (3R)-3-[(4R)-4-ethyl-2-imino-4-methyl-6-oxo-hexahydropyrimidin-1-yl]-N-[(3S,4R)-3-hydroxy-2,2-dimethyl-chroman-4-yl]indane-5-carboxamide] | 0.6
16 | CCC1(CC)CC(=O)N([C@@H]2CCc3ccc(C(=O)N[C@@H]4c5ccccc5OC[C@]4(C)O)cc32)C(=N)N1 [Example 122, (3R)-3-(4,4-diethyl-2-imino-6-oxo-hexahydropyrimidin-1-yl)-N-[(3R,4R)-3-hydroxy-3-methyl-chroman-4-yl]indane-5-carboxamide] | 3.9
17 | CCC1(CC)CC(=O)N([C@@H]2CCc3ccc(C(=O)N[C@@H]4c5ccccc5OC[C@@]4(C)O)cc32)C(=N)N1 [Example 123, (3R)-3-(4,4-diethyl-2-imino-6-oxo-hexahydropyrimidin-1-yl)-N-[(3S,4R)-3-hydroxy-3-methyl-chroman-4-yl]indane-5-carboxamide] | 2.8
18 | CC1(C)CC(=O)N([C@@H]2CC(C)(C)c3ccc(C(=O)N[C@@H]4c5ccccc5OC[C@@]4(C)O)cc32)C(=N)N1 [Example 124, (3R)-N-[(3S,4R)-3-hydroxy-3-methyl-chroman-4-yl]-3-(2-imino-4,4-dimethyl-6-oxo-hexahydropyrimidin-1-yl)-1,1-dimethyl-indane-5-carboxamide] | 57.5
19 | CCC1(CC)CC(=O)N([C@@H]2CCCc3ccc(C(=O)N[C@@H]4c5ccccc5OC[C@H]4O)cc32)C(=N)N1 [Example 125, (4R)-4-(4,4-diethyl-2-imino-6-oxo-hexahydropyrimidin-1-yl)-N-[(3S,4R)-3-hydroxychroman-4-yl]tetralin-6-carboxamide] | 2.1
20 | CC[C@]1(C)CC(=O)N([C@H]2c3cc(C(=O)N[C@@H]4c5ccccc5C[C@H]4O)ccc3OCC2(C)C)C(=N)N1 [Example 126, (4R)-4-[(4R)-4-ethyl-2-imino-4-methyl-6-oxo-hexahydropyrimidin-1-yl]-N-[(1R,2R)-2-hydroxyindan-1-yl]-3,3-dimethyl-chromane-6-carboxamide] | 14.3
21 | CCC1(CC)CC(=O)N(C2c3cc(C(=O)N[C@@H]4c5ccccc5C[C@H]4O)ccc3OC2(C)C)C(=N)N1 (stereo partly drawn) [Example 127A, 3-(4,4-diethyl-2-imino-6-oxo-hexahydropyrimidin-1-yl)-N-[(1R,2R)-2-hydroxyindan-1-yl]-2,2-dimethyl-3H-benzofuran-5-carboxamide] | 202
22 | CCC1(CC)CC(=O)N([C@@H]2C[C@@H](C)Oc3ccc(C(=O)N[C@@H]4c5ccccc5C[C@H]4O)cc32)C(=N)N1 [Example 128, (2R,4R)-4-(4,4-diethyl-2-imino-6-oxo-hexahydropyrimidin-1-yl)-N-[(1R,2R)-2-hydroxyindan-1-yl]-2-methyl-chromane-6-carboxamide] | 2.8
23 | CC[C@]1(C)CC(=O)N([C@@H]2C[C@@H](C)Oc3ccc(C(=O)N[C@@H]4c5ccccc5C[C@@]4(C)O)cc32)C(=N)N1 [Example 129, (2R,4R)-4-[(4R)-4-ethyl-2-imino-4-methyl-6-oxo-hexahydropyrimidin-1-yl]-N-[(1R,2R)-2-hydroxy-2-methyl-indan-1-yl]-2-methyl-chromane-6-carboxamide] | 3.5
24 | CC[C@]1(C)CC(=O)N([C@@H]2C[C@@H](C)c3ccc(C(=O)N[C@@H]4c5ccccc5OC[C@]4(C)O)cc32)C(=N)N1 [Example 130, (1R,3R)-3-[(4R)-4-ethyl-2-imino-4-methyl-6-oxo-hexahydropyrimidin-1-yl]-N-[(3R,4R)-3-hydroxy-3-methyl-chroman-4-yl]-1-methyl-indane-5-carboxamide] | 2.1
25 | CC[C@]1(C)CC(=O)N([C@@H]2C[C@@H](C)c3ccc(C(=O)N[C@@H]4c5ccccc5OC[C@@]4(C)O)cc32)C(=N)N1 [Example 131, (1R,3R)-3-[(4R)-4-ethyl-2-imino-4-methyl-6-oxo-hexahydropyrimidin-1-yl]-N-[(3S,4R)-3-hydroxy-3-methyl-chroman-4-yl]-1-methyl-indane-5-carboxamide] | 2
26 | CCC1(CC)CC(=O)N([C@@H]2CCCOc3ccc(C(=O)N[C@@H]4c5ccccc5C[C@H]4O)cc32)C(=N)N1 [Example 132, (5R)-5-(4,4-diethyl-2-imino-6-oxo-hexahydropyrimidin-1-yl)-N-[(1R,2R)-2-hydroxyindan-1-yl]-2,3,4,5-tetrahydro-1-benzoxepine-7-carboxamide] | 1.6
27 | CC1(C)CC(=O)N(C2c3cc(C(=O)N[C@H]4CC(C)(C)Oc5ccccc54)ccc3OC2(C)C)C(=N)N1 (stereo partly drawn) [Example 134, N-[(4S)-2,2-dimethylchroman-4-yl]-3-(2-imino-4,4-dimethyl-6-oxo-hexahydropyrimidin-1-yl)-2,2-dimethyl-3H-benzofuran-5-carboxamide] | 8.8
